According to patent US20230085307A1, “PYRIDAZINONE COMPOUND AND HERBICIDE” (NISSAN CHEMICAL CORPORATION, priority 2019, published 2023):

Columns and labels:
Italian ryegrass [1] = experiment: Test Example 5: herbicidal effect by foliage application, plastic box (Table 20, symbol K); assay type: in vivo, Italian ryegrass (Lolium multiflorum); conditions: evaluated three weeks after application
In short: (§1)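 Post-emergence foliar test in sterilized diluvial soil. Compound applied as water-diluted emulsion at a predetermined rate to 14-day-old plants; evaluation at three weeks.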

persian speedwell [2] = experiment: Test Example 4: herbicidal effect by soil treatment (Table 19, symbol R); assay type: in vivo, Persian speedwell (Veronica persica)
In short: (§2)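 Emulsion of test compound, water-diluted to predetermined amount, sprayed on soil after sowing (seed depth ~1.5 cm, sterilized diluvial soil). Greenhouse, 25–30° C. Effect graded at three weeks post-spray.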

blackgrass [3] = experiment: Test Example 4: herbicidal effect by soil treatment (Table 19, symbol J); assay type: in vivo, blackgrass (Alopecurus myosuroides)
In short: as §2

windgrass [4] = experiment: Test Example 4: herbicidal effect by soil treatment (Table 19, symbol L); assay type: in vivo, windgrass (Apera spica-venti)
In short: as §2

velvetleaf [5] = experiment: Test Example 4: herbicidal effect by soil treatment (Table 19, symbol M); assay type: in vivo, velvetleaf (Abutilon theophrasti)
In short: as §2

Chinese sprangletop = experiment: Test Example 3: herbicidal effect by foliage application, Wagner pot (Table 18, symbol D); assay type: in vivo, chinese sprangletop (Leptochloa chinensis); conditions: 320 g/ha
In short: (§3)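 Plants were sown in alluvial soil held under 0.1–0.5 cm standing water and grown 14 days in a greenhouse at 25–30 °C. An emulsifiable formulation, water-diluted to the set dose, was then sprayed onto the foliage, and effects were scored three weeks later using previously defined criteria.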

lambsquarters [6] = experiment: Test Example 4: herbicidal effect by soil treatment (Table 19, symbol O); assay type: in vivo, lambsquarters (Chenopodium album)
In short: as §2

chickweed [7] = experiment: Test Example 5: herbicidal effect by foliage application, plastic box (Table 20, symbol P); assay type: in vivo, common chickweed (Stellaria media); conditions: evaluated three weeks after application
In short: as §1

wild oat [8] = experiment: Test Example 5: herbicidal effect by foliage application, plastic box (Table 20, symbol I); assay type: in vivo, wild oat (Avena fatua); conditions: evaluated three weeks after application
In short: as §1

rice flat sedge = experiment: Test Example 3: herbicidal effect by foliage application, Wagner pot (Table 18, symbol E); assay type: in vivo, rice flat sedge (Cyperus iria); conditions: 320 g/ha
In short: as §3

late watergrass = experiment: Test Example 2: herbicidal activity, application during weed generation under submerged conditions (Table 17, symbol A); assay type: in vivo, late watergrass (Echinochloa oryzicola); conditions: AAH 320 g/ha; application during weed generation, submerged conditions
In short: (§4)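 Steps: fill Wagner pots with alluvial soil; add water to give 4 cm depth; sow the species mixed; grow under glass at 25–30° C.; at 1–2 leaves apply water-diluted emulsion formulation to the water surface at a fixed herbicide amount; score after 3 weeks.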

blackgrass [9] = experiment: Test Example 5: herbicidal effect by foliage application, plastic box (Table 20, symbol J); assay type: in vivo, blackgrass (Alopecurus myosuroides); conditions: evaluated three weeks after application
In short: as §1

chickweed [10] = experiment: Test Example 4: herbicidal effect by soil treatment (Table 19, symbol P); assay type: in vivo, common chickweed (Stellaria media)
In short: as §2

barnyard grass [11] = experiment: Test Example 4: herbicidal effect by soil treatment (Table 19, symbol H); assay type: in vivo, barnyard grass (Echinochloa crus-galli)
In short: as §2

wild oat [12] = experiment: Test Example 4: herbicidal effect by soil treatment (Table 19, symbol I); assay type: in vivo, wild oat (Avena fatua)
In short: as §2

Italian ryegrass [13] = experiment: Test Example 4: herbicidal effect by soil treatment (Table 19, symbol K); assay type: in vivo, Italian ryegrass (Lolium multiflorum)
In short: as §2

velvetleaf [14] = experiment: Test Example 5: herbicidal effect by foliage application, plastic box (Table 20, symbol M); assay type: in vivo, velvetleaf (Abutilon theophrasti); conditions: evaluated three weeks after application
In short: as §1

oval-leafed pondweed = experiment: Test Example 2: herbicidal activity, application during weed generation under submerged conditions (Table 17, symbol C); assay type: in vivo, oval-leafed pondweed (Monochoria vaginalis); conditions: AAH 320 g/ha; application during weed generation, submerged conditions
In short: as §4

redroot pigweed [15] = experiment: Test Example 5: herbicidal effect by foliage application, plastic box (Table 20, symbol N); assay type: in vivo, redroot pigweed (Amaranthus retroflexus); conditions: evaluated three weeks after application
In short: as §1

windgrass [16] = experiment: Test Example 5: herbicidal effect by foliage application, plastic box (Table 20, symbol L); assay type: in vivo, windgrass (Apera spica-venti); conditions: evaluated three weeks after application
In short: as §1

southern crabgrass [17] = experiment: Test Example 4: herbicidal effect by soil treatment (Table 19, symbol F); assay type: in vivo, southern crabgrass (Digitaria ciliaris)
In short: as §2

green foxtail [18] = experiment: Test Example 5: herbicidal effect by foliage application, plastic box (Table 20, symbol G); assay type: in vivo, green foxtail (Setaria viridis); conditions: evaluated three weeks after application
In short: as §1

barnyard grass [19] = experiment: Test Example 5: herbicidal effect by foliage application, plastic box (Table 20, symbol H); assay type: in vivo, barnyard grass (Echinochloa crus-galli); conditions: evaluated three weeks after application
In short: as §1

persian speedwell [20] = experiment: Test Example 5: herbicidal effect by foliage application, plastic box (Table 20, symbol R); assay type: in vivo, Persian speedwell (Veronica persica); conditions: evaluated three weeks after application
In short: as §1

Japanese bulrush = experiment: Test Example 2: herbicidal activity, application during weed generation under submerged conditions (Table 17, symbol B); assay type: in vivo, Japanese bulrush (Schoenoplectus juncoides); conditions: AAH 320 g/ha; application during weed generation, submerged conditions
In short: as §4

lambsquarters [21] = experiment: Test Example 5: herbicidal effect by foliage application, plastic box (Table 20, symbol O); assay type: in vivo, lambsquarters (Chenopodium album); conditions: evaluated three weeks after application
In short: as §1

redroot pigweed [22] = experiment: Test Example 4: herbicidal effect by soil treatment (Table 19, symbol N); assay type: in vivo, redroot pigweed (Amaranthus retroflexus)
In short: as §2

barnyard grass [23] = experiment: Test Example 3: herbicidal effect by foliage application, Wagner pot (Table 18, symbol H); assay type: in vivo, barnyard grass (Echinochloa crus-galli); conditions: 320 g/ha
In short: as §3

southern crabgrass [24] = experiment: Test Example 5: herbicidal effect by foliage application, plastic box (Table 20, symbol F); assay type: in vivo, southern crabgrass (Digitaria ciliaris); conditions: evaluated three weeks after application
In short: as §1

green foxtail [25] = experiment: Test Example 4: herbicidal effect by soil treatment (Table 19, symbol G); assay type: in vivo, green foxtail (Setaria viridis)
In short: as §2

[26] = amount of applied herbicide 320 g/ha, foliage application after 14-day growth
[27] = amount of applied herbicide 320 g/ha

Cc1nn(C)c(=O)c(-c2c(-c3ccccc3OC(F)F)sc3cc(F)c(F)cc23)c1O [5-021]
Herbicidal effect by foliage application, K: Italian ryegrass (Italian ryegrass [1]; [26]): 4 (Herbicidal rate of 70% or more and less than 90%)
R: persian speedwell, herbicidal effect grade (persian speedwell [2]; [27]): 5 (Herbicidal rate of 90% or more (almost completely withered))
J: blackgrass, herbicidal effect grade (blackgrass [3]; [27]): 0 (Herbicidal rate of 5% or less (almost no effect))
L: windgrass, herbicidal effect grade (windgrass [4]; [27]): 4 (Herbicidal rate of 70% or more and less than 90%)
M: velvetleaf, herbicidal effect grade (velvetleaf [5]; [27]): 4 (Herbicidal rate of 70% or more and less than 90%)
herbicidal effect on Chinese sprangletop (D) (Chinese sprangletop): 3 (Herbicidal rate of 40% or more and less than 70%)
O: lambsquarters, herbicidal effect grade (lambsquarters [6]; [27]): 3 (Herbicidal rate of 40% or more and less than 70%)
Herbicidal effect by foliage application, P: chickweed (chickweed [7]; [26]): 5 (Herbicidal rate of 90% or more (almost completely withered))
Herbicidal effect by foliage application, I: wild oat (wild oat [8]; [26]): 2 (Herbicidal rate of 20% or more and less than 40%)
herbicidal effect on rice flat sedge (E) (rice flat sedge): 5 (Herbicidal rate of 90% or more (almost completely withered))
herbicidal effect rating, A: late watergrass (late watergrass): 0 (Herbicidal rate of 5% or less (almost no effect))
Herbicidal effect by foliage application, J: blackgrass (blackgrass [9]; [26]): 4 (Herbicidal rate of 70% or more and less than 90%)
P: chickweed, herbicidal effect grade (chickweed [10]; [27]): 2 (Herbicidal rate of 20% or more and less than 40%)
H: barnyard grass, herbicidal effect grade (barnyard grass [11]; [27]): 4 (Herbicidal rate of 70% or more and less than 90%)
I: wild oat, herbicidal effect grade (wild oat [12]; [27]): 0 (Herbicidal rate of 5% or less (almost no effect))
K: Italian ryegrass, herbicidal effect grade (Italian ryegrass [13]; [27]): 0 (Herbicidal rate of 5% or less (almost no effect))
Herbicidal effect by foliage application, M: velvetleaf (velvetleaf [14]; [26]): 5 (Herbicidal rate of 90% or more (almost completely withered))
herbicidal effect rating, C: oval-leafed pondweed (oval-leafed pondweed): 0 (Herbicidal rate of 5% or less (almost no effect))
Herbicidal effect by foliage application, N: redroot pigweed (redroot pigweed [15]; [26]): 4 (Herbicidal rate of 70% or more and less than 90%)
Herbicidal effect by foliage application, L: windgrass (windgrass [16]; [26]): 5 (Herbicidal rate of 90% or more (almost completely withered))
F: southern crabgrass, herbicidal effect grade (southern crabgrass [17]; [27]): 5 (Herbicidal rate of 90% or more (almost completely withered))
Herbicidal effect by foliage application, G: green foxtail (green foxtail [18]; [26]): 5 (Herbicidal rate of 90% or more (almost completely withered))
Herbicidal effect by foliage application, H: barnyard grass (barnyard grass [19]; [26]): 4 (Herbicidal rate of 70% or more and less than 90%)
Herbicidal effect by foliage application, R: persian speedwell (persian speedwell [20]; [26]): 5 (Herbicidal rate of 90% or more (almost completely withered))
herbicidal effect rating, B: Japanese bulrush (Japanese bulrush): 2 (Herbicidal rate of 20% or more and less than 40%)
Herbicidal effect by foliage application, O: lambsquarters (lambsquarters [21]; [26]): 3 (Herbicidal rate of 40% or more and less than 70%)
N: redroot pigweed, herbicidal effect grade (redroot pigweed [22]; [27]): 4 (Herbicidal rate of 70% or more and less than 90%)
herbicidal effect on barnyard grass (H) (barnyard grass [23]): 4 (Herbicidal rate of 70% or more and less than 90%)
Herbicidal effect by foliage application, F: southern crabgrass (southern crabgrass [24]; [26]): 5 (Herbicidal rate of 90% or more (almost completely withered))
G: green foxtail, herbicidal effect grade (green foxtail [25]; [27]): 5 (Herbicidal rate of 90% or more (almost completely withered))

Cc1nn(C)c(=O)c(-c2c(-c3ccc(OC4CCOC4)cc3)sc3ccc(F)cc23)c1O (stereo not drawn) [2-074]
herbicidal effect on K: Italian ryegrass (Italian ryegrass [1]; foliage application, 320 g/ha): 4 (Herbicidal rate of 70% or more and less than 90%)
herbicidal effect rating, R: persian speedwell (persian speedwell [2]; 320 g/ha): 5 (Herbicidal rate of 90% or more (almost completely withered))
herbicidal effect rating, J: blackgrass (blackgrass [3]; 320 g/ha): 1 (Herbicidal rate of 5% or more and less than 20%)
herbicidal effect rating, L: windgrass (windgrass [4]; 320 g/ha): 3 (Herbicidal rate of 40% or more and less than 70%)
herbicidal effect rating, M: velvetleaf (velvetleaf [5]; 320 g/ha): 3 (Herbicidal rate of 40% or more and less than 70%)
herbicidal effect on D (Chinese sprangletop), rating 0-5 (Chinese sprangletop): 5 (Herbicidal rate of 90% or more (almost completely withered))
herbicidal effect rating, O: lambsquarters (lambsquarters [6]; 320 g/ha): 5 (Herbicidal rate of 90% or more (almost completely withered))
herbicidal effect on P: chickweed (chickweed [7]; foliage application, 320 g/ha): 5 (Herbicidal rate of 90% or more (almost completely withered))
herbicidal effect on I: wild oat (wild oat [8]; foliage application, 320 g/ha): 4 (Herbicidal rate of 70% or more and less than 90%)
herbicidal effect on E (rice flat sedge), rating 0-5 (rice flat sedge): 5 (Herbicidal rate of 90% or more (almost completely withered))
herbicidal effect rating, A: late watergrass (late watergrass): 0 (Herbicidal rate of 5% or less (almost no effect))
herbicidal effect on J: blackgrass (blackgrass [9]; foliage application, 320 g/ha): 5 (Herbicidal rate of 90% or more (almost completely withered))
herbicidal effect rating, P: chickweed (chickweed [10]; 320 g/ha): 3 (Herbicidal rate of 40% or more and less than 70%)
herbicidal effect rating, H: barnyard grass (barnyard grass [11]; 320 g/ha): 5 (Herbicidal rate of 90% or more (almost completely withered))
herbicidal effect rating, I: wild oat (wild oat [12]; 320 g/ha): 0 (Herbicidal rate of 5% or less (almost no effect))
herbicidal effect rating, K: Italian ryegrass (Italian ryegrass [13]; 320 g/ha): 3 (Herbicidal rate of 40% or more and less than 70%)
herbicidal effect on M: velvetleaf (velvetleaf [14]; foliage application, 320 g/ha): 5 (Herbicidal rate of 90% or more (almost completely withered))
herbicidal effect rating, C: oval-leafed pondweed (oval-leafed pondweed): 0 (Herbicidal rate of 5% or less (almost no effect))
herbicidal effect on N: redroot pigweed (redroot pigweed [15]; foliage application, 320 g/ha): 5 (Herbicidal rate of 90% or more (almost completely withered))
herbicidal effect on L: windgrass (windgrass [16]; foliage application, 320 g/ha): 5 (Herbicidal rate of 90% or more (almost completely withered))
herbicidal effect rating, F: southern crabgrass (southern crabgrass [17]; 320 g/ha): 5 (Herbicidal rate of 90% or more (almost completely withered))
herbicidal effect on G: green foxtail (green foxtail [18]; foliage application, 320 g/ha): 5 (Herbicidal rate of 90% or more (almost completely withered))
herbicidal effect on H: barnyard grass (barnyard grass [19]; foliage application, 320 g/ha): 5 (Herbicidal rate of 90% or more (almost completely withered))
herbicidal effect on R: persian speedwell (persian speedwell [20]; foliage application, 320 g/ha): 5 (Herbicidal rate of 90% or more (almost completely withered))
herbicidal effect rating, B: Japanese bulrush (Japanese bulrush): 3 (Herbicidal rate of 40% or more and less than 70%)
herbicidal effect on O: lambsquarters (lambsquarters [21]; foliage application, 320 g/ha): 5 (Herbicidal rate of 90% or more (almost completely withered))
herbicidal effect rating, N: redroot pigweed (redroot pigweed [22]; 320 g/ha): 5 (Herbicidal rate of 90% or more (almost completely withered))
herbicidal effect on H (barnyard grass), rating 0-5 (barnyard grass [23]): 5 (Herbicidal rate of 90% or more (almost completely withered))
herbicidal effect on F: southern crabgrass (southern crabgrass [24]; foliage application, 320 g/ha): 5 (Herbicidal rate of 90% or more (almost completely withered))
herbicidal effect rating, G: green foxtail (green foxtail [25]; 320 g/ha): 5 (Herbicidal rate of 90% or more (almost completely withered))
